Where two headings read alike, the source gives them in different places. Marks after values point to notes of the source that are not given here.
Legend:
Format in all cases: cell-based
[1] = test system: Purpureocillium lilacinum spores; test: Spore viability (germination rate) of Purpureocillium lilacinum spores dispersed in fluid and stored at 30° C.
Method: (§1) 3 g of Purpureocillium lilacinum pure spore powder were transferred into a formulation vessel (IKA Type DT-20 mixing vessel with dispersion tool for Ultra Turrax) using a sterile spoon. 12 mL of fluid were added into the respective formulation vessel and dispersed using ultra turrax tube drive control for 1 min at 3000 rpm; change direction after 30 sec. After this 2.8 mL were transferred in four sample bottles (Wheaton Serum vial, Type I) leaving little headspace and closed tight using crimpneck caps (Macherey—Nagel type N 13). Afterwards all sample bottles were transferred to an incubator set at 30° C. and stored for a given time.
(§2) In regular intervals a sample was retrieved from the storage location and analyzed for spore viability. For this purpose, the original samples were thoroughly homogenized. Aliquots of 0.25 g or 250 μL of each sample were transferred into 50 mL falcon tubes. The tubes were filled up to 25 g using a sterile aqueous solution containing 2% Tween 80 and homogenized by vortexing to achieve the first dilution step (1:100 dilution). This dilution was used for further dilution and spotting on agar.
(§3) For these samples, an alternative dispersion/dilution method was applied where the oil phase was stripped from the spores first: 0.25 g or 250 μL of sample are weighted into a 2 mL Eppendorf tube, and 0.5 mL of 2% Tween 80 is added, and the mixture is transferred into an Eppendorf centrifuge where it is centrifuged for 1 min at 10.000 rpm. The supernatant (=upper oily phase) is discarded by using a pipette. […] 250 μL or 0.25 g of each sample were transferred into a sterile 50 mL Falcon tube. The tubes were filled up to 25 g using a sterile aqueous solution containing 2% Tween 80 and homogenized by vortexing to achieve the first dilution step (1:100 dilution). This dilution was used for further dilution and spotting on agar.
(§4) For evaluation of spore germination rate prepare a 1:30000 dilution based on the 1:100 dilution achieved by multiple automated dilution (pipetting robot, 96 well plate). Afterwards 12×12 cm agar plates were taken and spotted with 10 times 5 μL of each sample using an automated 12-Channel pipet. Wait until liquid is soaked up by agar and transfer agar plate to an incubator and incubate at 25° C. for 17 hours. Open the plate and place it under the microscope. Randomly chose one area per spot and record the number of germinated and non-germinated spores that are within the designated field. At least 200 spores per sample need to be evaluated. If needed count more than one field per spot.

[2] = test system: Beauveria bassiana spores; test: Spore viability (germination rate) of Beauveria bassiana spores dispersed in fluid and stored at 30° C.
Method: as §1, with “1.5 g” for “3 g”, “of Beauveria bassiana” for “of Purpureocillium lilacinum”, “spoon. 13.5” for “spoon. 12”, “N 13)” for “N 13).”
as §2, with “viability. Therefore” for “viability. For this purpose,”, “sample are” for “sample were”
as §3, with “phase is” for “phase was”, “sample are” for “sample were”, “dilution is” for “dilution was”
as §4, with “1:15000” for “1:30000”, “are” for “were”, “20°” for “25°”

[3] = test system: Penicillium bilaii spores; test: Spore viability (germination rate) of Penicillium bilaii spores dispersed in fluid and stored at 30° C.
Method: as §1, with “1.5 g” for “3 g”, “of Penicillium bilaii” for “of Purpureocillium lilacinum”, “spoon. 13.5” for “spoon. 12”, “N 13)” for “N 13).”
as §2, with “viability. Therefore” for “viability. For this purpose,”, “sample are” for “sample were”
Not all samples mixed well or mixed at all in 2% Tween 80. For these samples, an alternative dispersion/dilution method was applied where the oil phase is stripped from the spores first: 0.25 g or 250 μL of sample are weighted into a 2 mL Eppendorf tube, and 0.5 mL of 2% Tween 80 is added, and the mixture is transferred into an Eppendorf centrifuge where it is centrifuged for 1 min at 10.000 rpm. The supernatant (=upper oily phase) is discarded by using a pipette. Afterwards 250 μL of Breakthru S 240 are added and the spores are well dispersed. 250 μL or 0.25 g of each sample are transferred into a sterile 50 mL Falcon tube. The tubes were filled up to 25 g using a sterile aqueous solution containing 2% Tween 80 and homogenized by vortexing to achieve the first dilution step (1:100 dilution). This dilution is used for further dilution and spotting on agar.
as §4, with “1:15000” for “1:30000”, “are” for “were”, “20°” for “25°”

[4] = P. lilacinum spores in fluid, day 1
[5] = P. lilacinum spores in fluid, storage at 30° C., 35-40 d
[6] = P. lilacinum spores in fluid, storage at 30° C., 87-92 d
[7] = P. lilacinum spores in fluid, storage at 30° C., 12-15 d
[8] = P. lilacinum spores in fluid, storage at 30° C., 27-28 d
[9] = P. lilacinum spores in fluid, storage at 30° C., 51-55 d
[10] = Penicillium bilaii spores in fluid, 1-2 d
[11] = Penicillium bilaii spores in fluid, storage at 30° C., 41-43 d
[12] = Penicillium bilaii spores in fluid, storage at 30° C., 83-85 d
[13] = Beauveria bassiana spores in fluid, day 1
[14] = Beauveria bassiana spores in fluid, storage at 30° C., 14 d
[15] = Beauveria bassiana spores in fluid, storage at 30° C., 35 d
[16] = P. lilacinum spores in fluid, storage at 30° C., 7 m

CCCCCOC(=O)CC [Pentyl Propionate, Propionic acid Pentyl ester]
spore viability [%] at day 1 [1, 4]: 99.1% | spore viability [%] after 5-6 w (35-40 d) [1, 5]: 94.6% | spore viability [%] after 3 m (87-92 d) [1, 6]: 16.1%

Neopentylglycol dicocoate [Radialube 7302]
spore viability [%] after 5 w (35 d) [2]: 52.7%

Trimethylolpropane Triisostearate [Radia 7380]
spore viability [%] after 2 w (12-15 d) [1, 7]: 96.5% | spore viability [%] after 1 m (27-28 d) [1, 8]: 89.3% | spore viability [%] after 2 m (51-55 d) [1, 9]: 86.0%

CC(C)CCCCCCOC(=O)C1CCCCC1C(=O)OCCCCCCC(C)C (stereo not drawn) [Agnique AE829, 1,2-Cyclohexane dicarboxylic acid diisononyl ester]
spore viability [%] initial (1-2 d) [3, 10]: 95.3% | spore viability [%] 6 w@30° C. (41-43 d) [3, 11]: 89.4% | spore viability [%] 3 m@30° C. (83-85 d) [3, 12]: 71.9% | spore viability [%] at day 1 [2, 13]: 89.7% | spore viability [%] after 2 w (14 d) [2, 14]: 74.9% | spore viability [%] after 5 w (35 d) [2, 15]: 57.8% | spore viability [%] after 2 w (12-15 d) [1, 7]: 97.3% | spore viability [%] after 1 m (27-28 d) [1, 8]: 96.5% | spore viability [%] after 2 m (51-55 d) [1, 9]: 89.8%

Trimethylolpropane Tricocoate [Radialube 7359]
spore viability [%] after 1 m (27-28 d) [1]: 87.8% | spore viability [%] after 2 m (51-55 d) [1]: 87.5% | spore viability [%] after 2 w (12-15 d) [1]: 60.6^# % | spore viability [%] at day 1 [1]: 58.0^# % | spore viability [%] taken after 7 m of storage [1]: 87.3* %

CCCCCCCC/C=C\CCCCCCCC(=O)OCC(CC)CCCC (stereo not drawn) [Radia 7331, 2-Ethylhexyl oleate]
spore viability [%] initial (1-2 d) [3, 10]: 97.1% | spore viability [%] 6 w@30° C. (41-43 d) [3, 11]: 91.4% | spore viability [%] 3 m@30° C. (83-85 d) [3, 12]: 75.7% | spore viability [%] at day 1 [2, 13]: 91.5% | spore viability [%] after 2 w (14 d) [2, 14]: 81.4% | spore viability [%] after 5 w (35 d) [2, 15]: 66.3% | spore viability [%] after 2 w (12-15 d) [1, 7]: 97.9% | spore viability [%] after 1 m (27-28 d) [1, 8]: 95.9% | spore viability [%] after 2 m (51-55 d) [1, 9]: 85.9%

CCCCCCCC/C=C\CCCCCCCC(=O)OCC(CC)CCCC (stereo not drawn) [Radialube 7130, 2-Ethylhexyl oleate]
spore viability [%] after 2 w (12-15 d) [1, 7]: 98.5% | spore viability [%] after 1 m (27-28 d) [1, 8]: 94.3% | spore viability [%] after 2 m (51-55 d) [1, 9]: 87.9%

Sorbitan trioleate [Radiasurf 7355]
spore viability [%] after 2 w (14 d) [2]: 71.3% | spore viability [%] after 5 w (35 d) [2]: 60.4% | spore viability [%] after 3 m (87-92 d) [1]: 64.1% | spore viability [%] after 5-6 w (35-40 d) [1]: 96.4% | spore viability [%] at day 1 [1]: 98.3%

CCCCCCCCCCCC(=O)OCC(CC)CCCC (stereo not drawn) [Radia 7127, 2-Ethylhexyl laurate]
spore viability [%] initial (1-2 d) [3, 10]: 97.1% | spore viability [%] 6 w@30° C. (41-43 d) [3, 11]: 96% | spore viability [%] 3 m@30° C. (83-85 d) [3, 12]: 77.9% | spore viability [%] at day 1 [2, 13]: 91.3% | spore viability [%] after 2 w (14 d) [2, 14]: 76.3% | spore viability [%] after 5 w (35 d) [2, 15]: 68.4% | spore viability [%] at day 1 [1, 4]: 99.1% | spore viability [%] taken after 7 m of storage [1, 16]: 40.6* % | spore viability [%] after 2 w (12-15 d) [1, 7]: 99.0% | spore viability [%] after 1 m (27-28 d) [1, 8]: 98.3% | spore viability [%] after 2 m (51-55 d) [1, 9]: 88.4%

Trimethylolpropane Trioleate [Radialube 7361]
spore viability [%] after 2 w (12-15 d) [1, 7]: 97.2% | spore viability [%] after 1 m (27-28 d) [1, 8]: 92.3% | spore viability [%] after 2 m (51-55 d) [1, 9]: 85.4%

CCCCCC[C@@H](O)C/C=C\CCCCCCCC(=O)OC [Radia 7081, Ricinolic acid methylester]
spore viability [%] after 1 m (27-28 d) [1]: 95.8% | spore viability [%] after 2 m (51-55 d) [1]: 88.6% | spore viability [%] after 2 w (12-15 d) [1]: 94.7%

Fatty acid monoglyceride diacetate [Radia 7909]
spore viability [%] 3 m@30° C. (83-85 d) [3]: 42.0% | spore viability [%] 6 w@30° C. (41-43 d) [3]: 75.6% | spore viability [%] initial (1-2 d) [3]: 90.6% | spore viability [%] after 2 w (14 d) [2]: 11.5% | spore viability [%] after 5 w (35 d) [2]: 18.1% | spore viability [%] at day 1 [2]: 75.1% | spore viability [%] after 3 m (87-92 d) [1]: 78.5% | spore viability [%] after 5-6 w (35-40 d) [1]: 96.5% | spore viability [%] at day 1 [1]: 98.1%

CC(C)OC(=O)CCCCC(=O)OC(C)C [Crodamol DA, Diisopropyl adipate]
spore viability [%] at day 1 [1, 4]: 98.2% | spore viability [%] taken after 7 m of storage [1, 16]: 51.3* % | spore viability [%] after 2 w (12-15 d) [1, 7]: 94.3% | spore viability [%] after 1 m (27-28 d) [1, 8]: 95.0% | spore viability [%] after 2 m (51-55 d) [1, 9]: 68.2%

CCCCOC(=O)CC(CC(=O)OCCCC)(OC(C)=O)C(=O)OCCCC [Acetyltributylcitrat, O-Acetyl citric acid tributyl ester]
spore viability [%] initial (1-2 d) [3, 10]: 98.4% | spore viability [%] 6 w@30° C. (41-43 d) [3, 11]: 83.8% | spore viability [%] 3 m@30° C. (83-85 d) [3, 12]: 60.6% | spore viability [%] at day 1 [2, 13]: 85.5% | spore viability [%] after 2 w (14 d) [2, 14]: 76.7% | spore viability [%] after 5 w (35 d) [2, 15]: 58.8% | spore viability [%] at day 1 [1, 4]: 98.9% | spore viability [%] after 5-6 w (35-40 d) [1, 5]: 98.0% | spore viability [%] after 3 m (87-92 d) [1, 6]: 87.5%

Source: patent US20260033491A1, “FUNGAL SPORE FORMULATIONS INCLUDING CARRIER FLUIDS” (priority 2018, published 2026)
